What was measured:
Conditions in all cases: pH 7.4; 30 °C
[1] = molecular target: T1, Fatty-acid amide hydrolase 1 (Homo sapiens, UniProt O00519); assay: FAAH Inhibition Assay (5 min Preincubation)
T1 sequence (O00519 whole entry): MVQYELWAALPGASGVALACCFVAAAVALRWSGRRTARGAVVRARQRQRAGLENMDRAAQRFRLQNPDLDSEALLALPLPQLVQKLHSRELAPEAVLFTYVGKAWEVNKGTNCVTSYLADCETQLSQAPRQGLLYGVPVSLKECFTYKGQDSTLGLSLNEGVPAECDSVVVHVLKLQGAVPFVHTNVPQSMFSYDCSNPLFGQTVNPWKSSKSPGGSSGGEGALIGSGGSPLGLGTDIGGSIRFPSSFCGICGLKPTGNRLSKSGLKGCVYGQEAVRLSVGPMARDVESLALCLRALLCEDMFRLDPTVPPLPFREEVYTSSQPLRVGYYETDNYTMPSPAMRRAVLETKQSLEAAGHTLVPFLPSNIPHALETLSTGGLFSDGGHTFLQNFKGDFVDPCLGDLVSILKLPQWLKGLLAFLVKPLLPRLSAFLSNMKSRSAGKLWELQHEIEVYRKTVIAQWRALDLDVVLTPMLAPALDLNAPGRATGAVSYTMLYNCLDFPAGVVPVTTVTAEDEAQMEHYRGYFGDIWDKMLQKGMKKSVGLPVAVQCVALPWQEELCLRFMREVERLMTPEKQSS
Description: (§1) FAAH activity was measured by following the production of ammonia generated from the hydrolysis of oleamide by FAAH. GDH catalyzes the condensation of ammonia and alpha-ketoglutarate to glutamate with a concomitant conversion of NADH to nicotinamide adenine dinucleotide, oxidized form (NAD+), which is spectrophotometrically measured at 340 nm. Test compounds were preincubated with FAAH at room temperature for 5 min. The reaction was initiated with the addition of substrate oleamide. The absorbance at 340 nm was collected over a period of 30 min with reading taken in 10-s intervals using a spectrophotometer.

[2] = molecular target: T1, Fatty-acid amide hydrolase 1; assay: FAAH Inhibition Assay (15 min Preincubation)
Description: as §1, with “15” for “5”

[3] = molecular target: T1, Fatty-acid amide hydrolase 1; assay: FAAH Inhibition Assay (30 min Preincubation)
Description: as §1, with “30” for “5”

[4] = molecular target: T1, Fatty-acid amide hydrolase 1; assay: FAAH Inhibition Assay (60 min Preincubation)
Description: as §1, with “60” for “5”

With O=C(Nc1ccccc1)N1CCN(Cc2ccc3ccccc3n2)CC1 [N-phenyl-4-(quinolin-2-ylmethyl)piperazine-1-carboxamide] the IC50 [1] was 0.991 µM, the IC50 [2] was 0.687 µM and the IC50 [3] was 0.473 µM. The IC50 [4] was 0.033 µM.

— BindingDB's records for doi:10.1021/bi701378g (Pfizer, 2007)
